By IC50 is commonly meant the midpoint of a concentration-inhibition curve.

Where only a bound is given, the exact number is not on record here.

Consider 58 compounds from US12581252B2, “Substituted pyrrolo[3,4-b]pyridines as PI3K-α inhibitors” (Relay Therapeutics, Inc., priority 2020, dated 2026).

H1047R PIK3CA enzyme, sequence (P42336 whole entry H1047R): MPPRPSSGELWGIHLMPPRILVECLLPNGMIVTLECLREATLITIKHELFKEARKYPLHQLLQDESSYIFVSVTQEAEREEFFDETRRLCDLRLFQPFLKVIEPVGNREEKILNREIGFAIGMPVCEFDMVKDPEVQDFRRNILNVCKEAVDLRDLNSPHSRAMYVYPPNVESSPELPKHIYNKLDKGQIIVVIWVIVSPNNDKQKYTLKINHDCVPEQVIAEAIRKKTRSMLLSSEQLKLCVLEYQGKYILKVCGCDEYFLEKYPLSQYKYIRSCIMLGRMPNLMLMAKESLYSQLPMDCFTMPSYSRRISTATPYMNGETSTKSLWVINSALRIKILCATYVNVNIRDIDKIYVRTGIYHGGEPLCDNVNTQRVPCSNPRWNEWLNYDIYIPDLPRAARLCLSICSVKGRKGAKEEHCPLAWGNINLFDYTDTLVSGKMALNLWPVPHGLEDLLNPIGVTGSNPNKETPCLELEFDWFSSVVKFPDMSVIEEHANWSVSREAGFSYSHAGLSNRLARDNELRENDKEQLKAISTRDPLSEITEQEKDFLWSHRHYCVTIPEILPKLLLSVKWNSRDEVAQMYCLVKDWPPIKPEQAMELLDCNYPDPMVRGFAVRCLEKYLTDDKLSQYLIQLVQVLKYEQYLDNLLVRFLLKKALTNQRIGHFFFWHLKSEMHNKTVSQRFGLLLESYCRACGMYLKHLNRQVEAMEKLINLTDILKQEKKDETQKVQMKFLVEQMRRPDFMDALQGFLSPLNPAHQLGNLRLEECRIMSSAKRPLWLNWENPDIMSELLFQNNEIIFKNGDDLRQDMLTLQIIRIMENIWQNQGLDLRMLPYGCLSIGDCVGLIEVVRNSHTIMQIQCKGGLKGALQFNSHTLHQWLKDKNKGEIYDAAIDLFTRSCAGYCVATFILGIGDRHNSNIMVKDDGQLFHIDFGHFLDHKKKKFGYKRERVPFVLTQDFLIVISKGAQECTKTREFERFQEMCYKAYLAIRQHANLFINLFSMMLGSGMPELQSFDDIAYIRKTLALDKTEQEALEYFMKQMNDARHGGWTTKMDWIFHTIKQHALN
H1047R PIK3CA enzyme, sequence (P27986 whole entry partner): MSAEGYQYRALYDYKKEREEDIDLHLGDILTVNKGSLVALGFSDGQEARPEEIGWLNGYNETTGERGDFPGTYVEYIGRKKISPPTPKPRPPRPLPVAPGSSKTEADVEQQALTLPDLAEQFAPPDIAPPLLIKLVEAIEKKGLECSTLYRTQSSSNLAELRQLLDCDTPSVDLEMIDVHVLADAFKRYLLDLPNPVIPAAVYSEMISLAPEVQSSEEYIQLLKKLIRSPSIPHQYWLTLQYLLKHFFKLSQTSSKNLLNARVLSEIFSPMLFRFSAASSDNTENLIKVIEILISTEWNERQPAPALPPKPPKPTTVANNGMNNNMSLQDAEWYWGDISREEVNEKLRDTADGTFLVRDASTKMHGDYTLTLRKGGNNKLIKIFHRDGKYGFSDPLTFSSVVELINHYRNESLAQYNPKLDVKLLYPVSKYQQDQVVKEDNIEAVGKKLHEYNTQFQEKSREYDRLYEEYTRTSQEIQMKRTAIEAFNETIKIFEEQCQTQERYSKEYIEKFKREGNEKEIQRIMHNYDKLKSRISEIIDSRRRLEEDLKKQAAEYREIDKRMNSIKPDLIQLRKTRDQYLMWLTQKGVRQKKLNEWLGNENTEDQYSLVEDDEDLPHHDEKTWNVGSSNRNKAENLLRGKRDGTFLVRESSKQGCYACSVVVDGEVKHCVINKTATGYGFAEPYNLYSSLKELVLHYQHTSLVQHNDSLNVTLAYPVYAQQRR

This test addresses H1047R PIK3CA enzyme (Homo sapiens, UniProt P42336, H1047R). As to the kind of experiment: ADP-Glo Biochemical PIK3CA Kinase Assay. Background: ADP-Glo first removes unused ATP, then detects ADP through luciferase.
For `O=C(Nc1cc(CN2CCn3cnnc3C2)cc2c1C(c1cc(F)ccc1Cl)NC2=O)c1cc(F)cc(C(F)(F)F)c1` (stereo not shown) [Compound I-1401], the IC50 was no more than 100 nM.

Turning to `O=C(Nc1cc(CS(=O)(=O)Nc2cccnc2)cc2c1C(c1cc(F)ccc1Cl)NC2=O)c1cc(F)cc(C(F)(F)F)c1` (stereo not shown) [Compound I-1402], the IC50 is no more than 100 nM.

`CC(O)(c1ccncc1)c1cc(NC(=O)c2cc(F)cc(C(F)(F)F)c2)c2c(c1)C(=O)NC2c1cc(F)ccc1Cl` (stereo not shown) [Compound I-1403] gave an IC50 of no more than 100 nM.

For the compound `Cn1cc(-c2cc(NC(=O)c3cc(F)cc(C(F)(F)F)c3)c3c(c2)C(=O)NC3c2cc(F)ccc2Cl)cnc1=O` (stereo not shown) [Compound I-1404], the IC50 was no more than 100 nM.

For the compound `N#Cc1cccnc1-c1cc(NC(=O)c2cc(F)cc(C(F)(F)F)c2)c2c(c1)C(=O)NC2c1cc(F)ccc1Cl` (stereo not shown) [Compound I-1408], the IC50 is no more than 100 nM.

Turning to `Nc1cnc2ccc(-c3cc(NC(=O)c4cc(F)cc(C(F)(F)F)c4)c4c(c3)C(=O)NC4c3cc(F)ccc3Cl)cn12` (stereo not shown) [Compound I-1409], the 50% inhibitory concentration (IC50) was no more than 100 nM.

Turning to `N#Cc1cnc2ccc(-c3cc(NC(=O)c4cc(F)cc(C(F)(F)F)c4)c4c(c3)C(=O)NC4c3cc(F)ccc3Cl)cn12` (stereo not shown) [Compound I-1410], the IC50 was no more than 100 nM.

With `Nc1cn2cc(-c3cc(NC(=O)c4cc(F)cc(C(F)(F)F)c4)c4c(c3)C(=O)NC4c3cc(F)ccc3Cl)ccc2n1` (stereo not shown) [Compound I-1411], the IC50 is no more than 100 nM.

As to `O=C(Nc1cc(OCc2cccnc2)cc2c1C(c1cc(F)ccc1Cl)NC2=O)c1cc(F)cc(C(F)(F)F)c1` (stereo not shown) [Compound I-1412], the IC50 was no more than 100 nM.

`[2H]C1(c2cc(F)ccc2Cl)NC(=O)c2cc(-c3ccc4ncnn4c3)cc(NC(=O)c3cc(F)cc(C(F)(F)F)c3)c21` (stereo not shown) [Compound I-1413] yielded an IC50 of no more than 100 nM.

In turn, `O=C(Nc1cc(OCC(O)CCO)cc2c1C(c1cc(F)ccc1Cl)NC2=O)c1cc(F)cc(C(F)(F)F)c1` (stereo not shown) [Compound I-1414] yielded an IC50 of no more than 100 nM.

Compound `O=C(Nc1cc(-c2ccc3ocnc3c2)cc2c1C(c1cc(F)ccc1Cl)NC2=O)c1cc(F)cc(C(F)(F)F)c1` (stereo not shown) [Compound I-1415] yielded a concentration for half-maximal inhibition (IC50) of no more than 100 nM.

With `NC(=O)COc1ncc(-c2cc(NC(=O)c3cc(F)cc(C(F)(F)F)c3)c3c(c2)C(=O)NC3c2cc(F)ccc2Cl)cn1` (stereo not shown) [Compound I-1416], the concentration for half-maximal inhibition (IC50) was no more than 100 nM.

For the compound `O=C(Nc1cc(Br)cc2c1C(c1cc(F)ccc1Cl)NC2=O)c1csc(Cl)c1Cl` (stereo not shown) [Compound I-1417], the IC50 was in the range of 1000 to 10000 nM.

For `COc1ncc(-c2cc(NC(=O)c3cc(F)cc(C(F)(F)F)c3)c3c(c2)C(=O)NC3c2cc(F)ccc2Cl)cc1F` (stereo not shown) [Compound I-1419], the half-maximal inhibitory concentration (IC50) was no more than 100 nM.

For `N#CCn1cc(-c2cc(NC(=O)c3cc(F)cc(C(F)(F)F)c3)c3c(c2)C(=O)NC3c2cc(F)ccc2Cl)cn1` (stereo not shown) [Compound I-1420], the IC50 was no more than 100 nM.

In turn, `CC(C)(O)COc1cc(NC(=O)c2cc(F)cc(C(F)(F)F)c2)c2c(n1)C(=O)NC2c1cc(F)ccc1Cl` (stereo not shown) [Compound I-1421] returned an IC50 of 100 to 500 nM.

`C=CCCNC(=O)c1cc(NC(=O)c2cc(F)cc(C(F)(F)F)c2)c2c(c1)C(=O)NC2c1cc(F)ccc1Cl` (stereo not shown) [Compound I-1422] returned an IC50 of no more than 100 nM.

As for `O=C(Nc1cc(Br)cc2c1C(c1cc(F)ccc1Cl)NC2=O)c1ccc(C(F)(F)F)o1` (stereo not shown) [Compound I-1423], the IC50 is 1000 to 10000 nM.

On to `O=C1NC(c2cc(F)ccc2Cl)c2c(NC(=O)c3cc(F)cc4ccc(=O)[nH]c34)cc(Br)cc21` (stereo not shown) [Compound I-1424], for which the IC50 lay within 1000 to 10000 nM.

With `Nc1csnc1C(=O)Nc1cc(Br)cc2c1C(c1cc(F)ccc1Cl)NC2=O` (stereo not shown) [Compound I-1425], the IC50 was in the range of 10000 to 100000 nM.

For `O=C1NC(c2cc(F)ccc2Cl)c2c(NC(=O)c3nsc(Cl)c3Cl)cc(Br)cc21` (stereo not shown) [Compound I-1426], the IC50 was in the range of 1000 to 10000 nM.

`O=C(Nc1cc(Br)cc2c1C(c1cc(F)ccc1Cl)NC2=O)c1ccc(C(F)(F)F)s1` (stereo not shown) [Compound I-1427] registered an IC50 of 1000 to 10000 nM.

With `O=C(Nc1cc(Br)cc2c1C(c1cc(F)ccc1Cl)NC2=O)c1cc(C(F)(F)F)cs1` (stereo not shown) [Compound I-1428], the IC50 is 1000 to 10000 nM.

`O=C1NC(c2cc(F)ccc2Cl)c2c(NC(=O)N3CCc4ccc(=O)[nH]c43)cc(Br)cc21` (stereo not shown) [Compound I-1429]: the IC50 lay in the range of 10000 to 100000 nM.

For `O=C(Nc1cc(Cn2ccnc2)cc2c1C(c1cc(F)ccc1Cl)NC2=O)c1cc(F)cc(C(F)(F)F)c1` (stereo not shown) [Compound I-1430], the concentration for half-maximal inhibition (IC50) is no more than 100 nM.

For the compound `Cc1ccccc1S(=O)(=O)Cc1cc(NC(=O)c2cc(F)cc(C(F)(F)F)c2)c2c(c1)C(=O)NC2c1cc(F)ccc1Cl` (stereo not shown) [Compound I-1433], the IC50 was no more than 100 nM.

On to `CN=S(C)(=O)Cc1cc(NC(=O)c2cc(F)cc(C(F)(F)F)c2)c2c(c1)C(=O)NC2c1cc(F)ccc1Cl` (stereo not shown) [Compound I-1434], for which the IC50 was no more than 100 nM.

As for `CS(=O)(Cc1cc(NC(=O)c2cc(F)cc(C(F)(F)F)c2)c2c(c1)C(=O)NC2c1cc(F)ccc1Cl)=Nc1ccccc1` (stereo not shown) [Compound I-1435], the IC50 is no more than 100 nM.

Compound `O=C(Nc1cc(CS(=O)(=O)c2ccccc2)cc2c1C(c1cc(F)ccc1Cl)NC2=O)c1cc(F)cc(C(F)(F)F)c1` (stereo not shown) [Compound I-1436] came in with an IC50 of no more than 100 nM.

On to `N#Cc1cc2nccn2cc1-c1cc(NC(=O)c2cc(F)cc(C(F)(F)F)c2)c2c(c1)C(=O)NC2c1cc(F)ccc1Cl` (stereo not shown) [Compound I-1437], for which the IC50 is no more than 100 nM.

For the compound `COc1ccc(-c2cc(NC(=O)c3cc(F)cc(C(F)(F)F)c3)c3c(c2)C(=O)NC3c2cc(F)ccc2Cl)nn1` (stereo not shown) [Compound I-1438], the IC50 was no more than 100 nM.

`CN(C)S(=O)(=O)n1nccc1-c1cc(NC(=O)c2cc(F)cc(C(F)(F)F)c2)c2c(c1)C(=O)NC2c1cc(F)ccc1Cl` (stereo not shown) [Compound I-1439] displayed an IC50 of no more than 100 nM.

For `O=C(Nc1cc(-c2cn3ncnc3cn2)cc2c1[C@@H](c1cc(F)ccc1Cl)NC2=O)c1cc(F)cc(C(F)(F)F)c1` [Compound I-1440], the IC50 lay in the range of 1000 to 10000 nM.

In the case of `N#Cc1cnc2ccc(-c3cc(NC(=O)c4cc(F)cc(C(F)(F)F)c4)c4c(c3)C(=O)N[C@@H]4c3cc(F)ccc3Cl)cn12` [Compound I-1442], the IC50 lay within 100 to 500 nM.

On to `N#Cc1cnc2ccc(-c3cc(NC(=O)c4cc(F)cc(C(F)(F)F)c4)c4c(c3)C(=O)N[C@H]4c3cc(F)ccc3Cl)cn12` [Compound I-1443], for which the IC50 is no more than 100 nM.

`Nc1nc2ccc(-c3cc(NC(=O)c4cc(F)cc(C(F)(F)F)c4)c4c(c3)C(=O)N[C@@H]4c3cc(F)ccc3Cl)cn2n1` [Compound I-1444]: the IC50 was no more than 100 nM.

Regarding `Nc1nc2ccc(-c3cc(NC(=O)c4cc(F)cc(C(F)(F)F)c4)c4c(c3)C(=O)N[C@H]4c3cc(F)ccc3Cl)cn2n1` [Compound I-1445], the IC50 was no more than 100 nM.

As to `Nc1nc2cc(-c3cc(NC(=O)c4cc(F)cc(C(F)(F)F)c4)c4c(c3)C(=O)N[C@@H]4c3cc(F)ccc3Cl)ccn2n1` [Compound I-1446], the IC50 was no more than 100 nM.

In turn, `Nc1nc2cc(-c3cc(NC(=O)c4cc(F)cc(C(F)(F)F)c4)c4c(c3)C(=O)N[C@H]4c3cc(F)ccc3Cl)ccn2n1` [Compound I-1447] gave an IC50 of no more than 100 nM.

The compound `Nc1nnc2ccc(-c3cc(NC(=O)c4cc(F)cc(C(F)(F)F)c4)c4c(c3)C(=O)N[C@@H]4c3cc(F)ccc3Cl)cn12` [Compound I-1448] returned an IC50 of 500 to 1000 nM.

In the case of `Nc1nnc2ccc(-c3cc(NC(=O)c4cc(F)cc(C(F)(F)F)c4)c4c(c3)C(=O)N[C@H]4c3cc(F)ccc3Cl)cn12` [Compound I-1449], the IC50 is no more than 100 nM.

`O=C(Nc1cc(-c2ccn3ccnc3c2)cc2c1[C@H](c1cc(F)ccc1Cl)NC2=O)c1cc(F)cc(C(F)(F)F)c1` [Compound I-1450] yielded a 50% inhibitory concentration (IC50) of no more than 100 nM.

Compound `O=C(Nc1cc(-c2ccn3ccnc3c2)cc2c1[C@@H](c1cc(F)ccc1Cl)NC2=O)c1cc(F)cc(C(F)(F)F)c1` [Compound I-1451] gave an IC50 of 100 to 500 nM.

In the case of `O=C(Nc1cc(-c2ccc3nnnn3c2)cc2c1[C@@H](c1cc(F)ccc1Cl)NC2=O)c1cc(F)cc(C(F)(F)F)c1` [Compound I-1452], the IC50 is 1000 to 10000 nM.

As for `O=C(Nc1cc(-c2ccc3nnnn3c2)cc2c1[C@H](c1cc(F)ccc1Cl)NC2=O)c1cc(F)cc(C(F)(F)F)c1` [Compound I-1453], the IC50 is no more than 100 nM.

As to `N#CCn1ccnc1-c1cc(NC(=O)c2cc(F)cc(C(F)(F)F)c2)c2c(c1)C(=O)NC2c1cc(F)ccc1Cl` (stereo not shown) [Compound I-1454], the IC50 is 100 to 500 nM.

`CS(=O)(=O)c1ccc(-c2cc(NC(=O)c3cc(F)cc(C(F)(F)F)c3)c3c(c2)C(=O)NC3c2cc(F)ccc2Cl)cn1` (stereo not shown) [Compound I-1455] returned an IC50 of no more than 100 nM.

In turn, `CS(=O)(=O)c1ccc(-c2cc(NC(=O)c3cc(F)cc(C(F)(F)F)c3)c3c(c2)C(=O)NC3c2cc(F)ccc2Cl)nc1` (stereo not shown) [Compound I-1456] had an IC50 of no more than 100 nM.

In the case of `O=C(Nc1cc(-c2ccc3ncnn3n2)cc2c1C(c1cc(F)ccc1Cl)NC2=O)c1cc(F)cc(C(F)(F)F)c1` (stereo not shown) [Compound I-1458], the IC50 was no more than 100 nM.

In turn, `CC(c1ccccc1O)N(C)C(=O)Nc1cc(Br)cc2c1C(c1cc(F)ccc1Cl)NC2=O` (stereo not shown) [Compound I-1459] registered an IC50 of 10000 to 100000 nM.

As to `O=C1NC(c2cc(F)ccc2Cl)c2c(Nc3nccc4cc[nH]c34)cc(Br)cc21` (stereo not shown) [Compound I-1460], the IC50 was 10000 to 100000 nM.

The compound `O=C1NC(c2cc(F)ccc2Cl)c2c(Nc3nccc4ccsc34)cc(Br)cc21` (stereo not shown) [Compound I-1461] had an IC50 of 10000 to 100000 nM.

For the compound `O=C1NC(c2cc(F)ccc2Cl)c2c(NC(=O)N3CC4(CC4)c4ccccc43)cc(Br)cc21` (stereo not shown) [Compound I-1462], the IC50 was 100 to 500 nM.

On to `O=C(Nc1cc(CC(O)CCO)cc2c1C(c1cc(F)ccc1Cl)NC2=O)c1cc(F)cc(C(F)(F)F)c1` (stereo not shown) [Compound I-1463], for which the IC50 was no more than 100 nM.

The compound `O=C(Nc1cc(-c2cnc(-c3ncco3)nc2)cc2c1C(c1cc(F)ccc1Cl)NC2=O)c1cc(F)cc(C(F)(F)F)c1` (stereo not shown) [Compound I-1464] showed an IC50 of no more than 100 nM.

On to `O=C(Nc1cc(-c2cnn(-c3ccncn3)c2)cc2c1C(c1cc(F)ccc1Cl)NC2=O)c1cc(F)cc(C(F)(F)F)c1` (stereo not shown) [Compound I-1465], for which the IC50 was no more than 100 nM.

`NS(=O)(=O)CCNC(=O)c1cc(NC(=O)c2cc(F)cc(C(F)(F)F)c2)c2c(c1)C(=O)NC2c1cc(F)ccc1Cl` (stereo not shown) [Compound I-1469] returned an IC50 of no more than 100 nM.
